Source: patent publication US20220153732A1, “PROTEIN SECRETION INHIBITORS” (KEZAR LIFE SCIENCES, priority 2019, published 2022)
Like-named read-outs stand apart in the source and are kept apart here.

Tests used:
Assay type in all cases: cell-based
[1] = tested on: HER3-ss+4aa/Gaussia Luciferase; assay: Dox-Induced Her3-ss-Gluc Assay; details: 293FRT/TO cells, read-out: 24 hr Dox Inducible Her3(ss + 4)Gluc 293FRT/TO: Mean IC50
In short: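 Stable T-REx cell line carrying a doxycycline-regulated HER3-ss+4aa/Gaussia luciferase insert, plated the day before assay. Compound dilutions in DMSO/media with doxycycline added, then incubated at 37° C., 5% CO2. Stereoisomer mixtures tested where stereochemistry is not drawn.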

[2] = tested on: human multiple myeloma cell line NCI-H929; assay: H929 Cell Viability Assay; details: 48 hr, NCI-H929 cells, Celltiter-Glo, read-out: 48 hr H929 Viability Celltiter-Glo: Mean EC50
Procedure: Plates were incubated at 37° C., 5% CO2 for 48 hours. After 48 hours, Celltiter-Glo® (Promega) was added to each well and luciferase signal was quantified using Tecan Infinite M1000 Pro for cell viability determination.
For chemical structures that include one or more stereoisomers, but are illustrated without indicating stereochemistry, the assay data refers to a mixture of stereoisomers.

[3] = tested on: TNFα-FL/Gaussia Luciferase; assay: Dox Induced TNFα-FL-Gluc Assay; details: 293FRT/TO cells, read-out: 24 hr Dox Inducible TNFaFLGluc 293FRT/TO: Mean IC50
In short: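 A stable T-REx cell line carrying doxycycline-inducible TNFα-FL/Gaussia luciferase was plated the day before assay. Compound dilutions in DMSO/media containing doxycycline were then added and incubated at 37° C, 5% CO2.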

[4] = tested on: human multiple myeloma cell line U266B1; assay: U266 Cell Viability Assay; details: U-266, 48 hr, U266B1 cells, Celltiter-Glo, read-out: 48 hr U266 Viability Celltiter-Glo: Mean EC50
In short: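 U266B1 myeloma cells treated with compound dilutions in DMSO/media for 48 h at 37 °C, 5% CO2. Viability read by CellTiter-Glo luminescence. Stereochemically undefined structures were tested as stereoisomer mixtures.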

[5] = tested on: IL-2-FL/Gaussia Luciferase; assay: Dox Induced IL2-FL-Gluc Assay; details: 293FRT/TO cells, read-out: 24 hr Dox Inducible IL2FLGIuc 293FRT/TO: Mean IC50
In short: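 Stable T-REx cell line expressing doxycycline-inducible IL-2-FL/Gaussia luciferase cDNA, plated the day before assay. Compound dilutions in DMSO/media containing doxycycline added and incubated at 37° C., 5% CO2. Unspecified stereochemistry means data refer to a stereoisomer mixture.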

[6] = tested on: PD1-ss+10aa/Gaussia Luciferase; assay: Dox-Induced PD1-ss-Gluc Assay; details: 293FRT/TO cells, read-out: 24 hr Dox Inducible PD1ssGluc 293FRT/TO: Mean IC50
In short: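 Stable cell line carrying PD1-ss+10aa/Gaussia luciferase cDNA under T-REx (doxycycline-inducible) control, plated the day before assay. Compound dilutions in DMSO/media containing doxycycline added and incubated at 37° C, 5% CO2. Undefined stereocentres: data refer to stereoisomer mixtures.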

[7] = 24 hr doxycycline induction, Gaussia luciferase signal

| Structure (SMILES) | IC50 ([1]; 24 hr, doxycycline-induced) [µM] | EC50 [2] [µM] | IC50 ([3]; 24 hr, doxycycline-induced) [µM] | EC50 [4] [µM] | IC50 ([5]; 24 hr, doxycycline-induced) [µM] | IC50 ([6]; 24 hr, doxycycline-induced) [µM] | IC50 [1, 7] [µM] | IC50 [3, 7] [µM] | IC50 [5, 7] [µM] | IC50 [6, 7] [µM] |
| --- | --- | --- | --- | --- | --- | --- | --- | --- | --- | --- |
| CC(C)OC(C)(C)c1csc(NC(=O)c2cccn2CCCc2cccnc2)n1 [Compound A190, N-(4-(2-isopropoxypropan-2-yl)thiazol-2-yl)-1-(3-(pyridin-3-yl)propyl)-1H-pyrrole-2-carboxamide] | – | > 25 | – | > 25 | – | – | > 18.1 | > 25 | 3.44 | 5.23 |
| CC(C)(CCc1ccccc1)c1csc(NC(=O)c2cccn2Cc2ccncc2)n1 [Compound A225, N-(4-(2-methyl-4-phenylbutan-2-yl)thiazol-2-yl)-1-(pyridin-4-ylmethyl)-1H-pyrrole-2-carboxamide] | – | 8.89 | – | > 25 | – | – | 0.558 | 3.84 | 0.486 | 0.324 |
| CC(C)OC(C)(C)c1csc(NC(=O)c2cccn2CCCCc2ccncc2)n1 [Compound A44, N-(4-(2-isopropoxypropan-2-yl)thiazol-2-yl)-1-(4-(pyridin-4-yl)butyl)-1H-pyrrole-2-carboxamide] | – | > 24.8 | – | > 25 | – | – | 1.48 | 13.3 | 0.837 | 0.963 |
| CCc1nc(NC(=O)c2cccn2Cc2ccncc2)sc1C [Compound A32, N-(4-ethyl-5-methylthiazol-2-yl)-1-(pyridin-4-ylmethyl)-1H-pyrrole-2-carboxamide] | – | > 25 | – | > 25 | – | – | 1.33 | > 20.3 | 1.98 | 0.633 |
| Cc1cccc2sc(NC(=O)c3cccn3Cc3ccncc3)nc12 [Compound A46] | – | > 25 | – | > 25 | – | – | 2.98 | 17.8 | 0.89 | 1.07 |
| CC(C)OCc1csc(NC(=O)c2cccn2Cc2ccncc2)n1 [Compound A59, N-(4-(isopropoxymethyl)thiazol-2-yl)-1-(pyridin-4-ylmethyl)-1H-pyrrole-2-carboxamide] | – | > 25 | – | > 25 | – | – | 11.9 | 16.6 | 3.62 | 1.51 |
| Cc1ccn(Cc2ccncc2)c1C(=O)Nc1nc(C(C)(C)OC(C)C)cs1 [Compound A88, N-(4-(2-isopropoxypropan-2-yl)thiazol-2-yl)-3-methyl-1-(pyridin-4-ylmethyl)-1H-pyrrole-2-carboxamide] | – | > 25 | – | > 25 | – | – | > 25 | > 25 | > 25 | 9.65 |
| C/C(=C\c1ccccc1)c1csc(NC(=O)c2cccn2Cc2ccncc2)n1 [Compound A247, N-(4-(1-phenylprop-1-en-2-yl)thiazol-2-yl)-1-(pyridin-4-ylmethyl)-1H-pyrrole-2-carboxamide] | – | > 25 | – | > 25 | – | – | 0.377 | 2.32 | 0.788 | 0.146 |
| Cc1cc(Cn2cccc2C(=O)Nc2nc(C(C)(C)OC(C)C)cs2)cc(C)n1 [Compound A97] | – | > 25 | – | > 25 | – | – | > 25 | > 25 | > 25 | 18.9 |
| CC(C)OC(C)(C)c1csc(NC(=O)c2ccn(Cc3ccncc3)n2)n1 [Compound A100, N-(4-(2-isopropoxypropan-2-yl)thiazol-2-yl)-1-(pyridin-4-ylmethyl)-1H-pyrazole-3-carboxamide] | – | 24.6 | – | > 25 | – | – | > 25 | > 25 | > 25 | 24.6 |
| CC(=O)Nc1ccc(Cn2cccc2C(=O)Nc2nc(C(C)(C)OC(C)C)cs2)cc1 [Compound A114, 1-(4-acetamidobenzyl)-N-(4-(2-isopropoxypropan-2-yl)thiazol-2-yl)-1H-pyrrole-2-carboxamide] | – | > 25 | – | > 25 | – | – | > 25 | > 25 | > 25 | > 25 |
| O=C(Nc1nc2nccnc2s1)c1cccn1Cc1ccncc1 [Compound A115] | – | > 25 | – | > 25 | – | – | > 25 | > 25 | > 25 | > 25 |

The remaining lines, values ahead:

| IC50 ([1]; 24 hr, doxycycline-induced) [µM] | EC50 [2] [µM] | IC50 ([3]; 24 hr, doxycycline-induced) [µM] | EC50 [4] [µM] | IC50 ([5]; 24 hr, doxycycline-induced) [µM] | IC50 ([6]; 24 hr, doxycycline-induced) [µM] | IC50 [1, 7] [µM] | IC50 [3, 7] [µM] | IC50 [5, 7] [µM] | IC50 [6, 7] [µM] | Structure (SMILES) |
| --- | --- | --- | --- | --- | --- | --- | --- | --- | --- | --- |
| 0.443 | 17.9 | 3.57 | > 25 | 0.765 | 0.029 | – | – | – | – | O=C(Nc1nc(/C=C/c2ncc(F)cc2F)cs1)c1cccn1Cc1ccncc1 [Compound A358] |
| 0.835 | 17.9 | 1.35 | > 25 | 0.334 | 0.374 | – | – | – | – | O=C(Nc1nc([C@H]2CCN2c2ccccc2)cs1)c1cccn1Cc1ccncc1 [Compound A336] |
| > 25 | > 25 | > 25 | > 25 | > 25 | > 25 | – | – | – | – | CC(C)(C)[C@H]1C[C@@H]1NC(=O)c1cccn1Cc1ccncc1 [Compound B23, N-((1S,2R)-2-(tert-butyl)cyclopropyl)-1-(pyridin-4-ylmethyl)-1H-pyrrole-2-carboxamide] |
| > 25 | > 25 | > 25 | > 25 | > 25 | > 25 | – | – | – | – | CCc1cc(N(C)C(=O)c2cccn2Cc2ccncc2)ccc1C [Compound B25, N-(3-ethyl-4-methylphenyl)-N-methyl-1-(pyridin-4-ylmethyl)-1H-pyrrole-2-carboxamide] |
| 0.411 | 11.4 | 3.01 | > 25 | 0.752 | 0.13 | – | – | – | – | COc1cnc([C@@H]2C[C@H]2c2csc(NC(=O)c3cccn3Cc3ccncc3)n2)c(F)c1 [Compound A335] |
| – | > 25 | – | > 25 | – | – | 2.02 | > 25 | > 25 | 2.25 | O=C(Nc1nc(N2CCC(c3ccccc3)CC2)cs1)c1cccn1Cc1ccncc1 [Compound A261] |
| 0.097 | 4.29 | 0.516 | > 25 | 0.082 | 0.064 | – | – | – | – | O=C(Nc1nc([C@@H]2CCCCN2c2ccccc2)cs1)c1cccn1Cc1ccncc1 [Compound A332] |
| > 25 | > 25 | > 25 | > 25 | > 25 | > 25 | – | – | – | – | CC(C)OC(C)(C)c1csc(NC(=O)c2ccccc2N2CCOCC2)n1 [Compound A340] |
| 0.071 | 6.11 | 0.721 | 14.8 | 0.199 | 0.024 | – | – | – | – | COc1ccc(O[C@H]2C[C@@H](c3csc(NC(=O)c4cccn4Cc4ccncc4)n3)C2)nc1 [Compound A309] |
| 5.41 | > 25 | 14.4 | 23.8 | > 25 | 0.035 | – | – | – | – | Cc1cccc(/C=C/c2csc(NC(=O)c3cccn3Cc3ccncc3)n2)n1 [Compound A356] |
| – | 1.47 | – | > 25 | – | – | 0.032 | 0.147 | 0.029 | 0.015 | O=C(Nc1nc([C@H]2CCCN2c2ccccc2)cs1)c1cccn1Cc1ccncc1 [Compound A275] |
| > 25 | > 25 | > 25 | > 25 | > 25 | 0.047 | – | – | – | – | N#Cc1ccc(/C=C/c2csc(NC(=O)c3cccn3Cc3ccncc3)n2)nc1 [Compound A341] |
